These results are taken from patent publication US10377709B2, “Carboxamide derivatives and the use thereof as medicaments for the treatment of hepatitis B” (Janssen Sciences Ireland UC, priority 2013, dated 2019).

Data set [1] deals with HBV. The experiment in a line: Anti-HBV activity in HepG2.2.15 stable transfected cell line (HBV DNA from secreted virions, realtime PCR). Format: cell-based, Hepatitis B virus. Conditions: Hepatitis B virus, HepG2.2.15, 144 h, HepG2.2.15 cells; 6 days of treatment; HBV DNA from secreted virions by realtime PCR.
Data set [2] in a line: Cytotoxicity in HepG2 cells (Resazurin assay). Conditions: human, incubated 4 days, viability by Resazurin assay. It counts as cell-based. (Resazurin is reduced to fluorescent resorufin, in cell work by metabolically active cells.)
Data set [3] concerns HBV. The experiment in a line: Anti-HBV activity in HepG2.117 inducible HBV producing cell line (intracellular HBV DNA, realtime PCR). Format: cell-based, Hepatitis B virus. As to conditions: Hepatitis B virus, HepG2.117, 72 h, HepG2.117 cells (Tet-off); 3 days of treatment; intracellular HBV DNA by realtime PCR.

pEC50: −log10 of the molar value.

On to `Cc1cc(NC(=O)[C@H]2CCN(C(=O)C(=O)NC3(C)COC3)C2)ccc1F` [Compound 7, (3S)-N-(4-Fluoro-3-methylphenyl)-1-{[(3-methyloxetan-3-yl)amino]-(oxo)acetyl}pyrrolidine-3-carboxamide], for which the pEC50 with HBV [1] is 7.17; in the data set with HBV [3], 6.93. This compound also yielded a CC50 at 4 days in data set [2] above 25 µM.
Turning to `C[C@@H](NC(=O)C(=O)N1CC[C@H](C(=O)Nc2ccc(F)c(Cl)c2)C1)C(F)(F)F` [Compound 15, (S)-N-(3-chloro-4-fluorophenyl)-1-(2-oxo-2-(((R)-1,1,1-trifluoropropan-2-yl)amino)acetyl)pyrrolidine-3-carboxamide], the pEC50 is 7.60 in the data set with HBV [1] and 7.33 with HBV [3]. In addition, in data set [2], the CC50 at 4 days was above 25 µM.
For `CC(C)(NC(=O)C(=O)N1CC[C@H](C(=O)Nc2cc(F)c(F)c(Cl)c2)C1)C(F)(F)F` [Compound 16, (S)-N-(3-chloro-4,5-difluorophenyl)-1-(2-oxo-2-((1,1,1-trifluoro-2-methylpropan-2-yl)amino)acetyl)pyrrolidine-3-carboxamide], the pEC50 with HBV [1] is 7.24; with HBV [3] it was 7.46. Also, the CC50 at 4 days in data set [2] is above 25 µM.
Take `CC(C)(C)NC(=O)C(=O)N1CC[C@H](C(=O)Nc2ccc(F)c(C#N)c2)C1` [Compound 20, (3S)-1-[2-(tert-butylamino)-2-oxo-acetyl]-N-(3-cyano-4-fluorophenyl)-pyrrolidine-3-carboxamide]: the figures for the negative-log EC50 (pEC50) in the data set on HBV [1] and with HBV [3] were 6.54 and 6.19, respectively. For the same compound, in data set [2], the CC50 at 4 days is above 25 µM.
Consider `CC(C)(C)NC(=O)C(=O)N1CC[C@H](C(=O)Nc2cc(F)c(F)c(Br)c2)C1` [Compound 3, (S)-N-(3-bromo-4,5-difluorophenyl)-1-(2-(tert-butylamino)-2-oxoacetyl)-pyrrolidine-3-carboxamide], for which the negative-log EC50 (pEC50) was 6.85 in the data set with HBV [1] and 7.59 in the data set with HBV [3]. For the same compound, in data set [2], the CC50 at 4 days was above 25 µM.
`O=C(NC1(C(F)(F)F)CC1)C(=O)N1CC[C@H](C(=O)Nc2cc(F)c(F)c(Cl)c2)C1` [Compound 13, (S)-N-(3-chloro-4,5-difluorophenyl)-1-(2-oxo-2-((1-(trifluoromethyl)cyclopropyl)amino)acetyl)pyrrolidine-3-carboxamide]: the negative logarithm of the EC50 (pEC50) is 7.70 in the data set on HBV [1] and 7.46 in the data set on HBV [3]. The CC50 at 4 days in data set [2] is above 25 µM.
As for `CC(C)NC(=O)C(=O)N1CC[C@H](C(=O)Nc2ccc(F)c(C(F)(F)F)c2)C1` [Compound 23, (3S)-N-[4-fluoro-3-(trifluoromethyl)phenyl]-1-[2-(isopropylamino)-2-oxo-acetyl]pyrrolidine-3-carboxamide], the pEC50 in the data set on HBV [1] was 6.42; in the data set on HBV [3] it was 6.24. In data set [2], this compound showed a half-maximal cytotoxic concentration (CC50) at 4 days above 25 µM.
With `C[C@@H](NC(=O)C(=O)N1CC[C@H](C(=O)Nc2cc(F)c(F)c(Br)c2)C1)C(F)(F)F` [Compound 1, (S)-N-(3-bromo-4,5-difluorophenyl)-1-(2-oxo-2-(((R)-1,1,1-trifluoropropan-2-yl)amino)acetyl)pyrrolidine-3-carboxamide], the pEC50 in the data set on HBV [1] is 7.70; in the data set on HBV [3] it was 7.74. Besides, the 50% cytotoxic concentration (CC50) at 4 days in data set [2] was above 25 µM.
On to `C[C@@H](NC(=O)C(=O)N1CC[C@H](C(=O)Nc2cc(F)c(F)c(Cl)c2)C1)C(F)(F)F` [Compound 11, (S)-N-(3-chloro-4,5-difluorophenyl)-1-(2-oxo-2-(((R)-1,1,1-trifluoropropan-2-yl)amino)acetyl)pyrrolidine-3-carboxamide], for which the pEC50 with HBV [1] is 7.49; with HBV [3] it was 7.77. In data set [2], this compound came in with a cytotoxic concentration (CC50) at 4 days above 25 µM.
Take `Cc1cc(NC(=O)[C@H]2CCN(C(=O)C(=O)N[C@H]3CCOC3)C2)ccc1F` [Compound 9, (3S)-N-(4-Fluoro-3-methylphenyl)-1-{oxo[(3S)-tetrahydrofuran-3-ylamino]-acetyl}pyrrolidine-3-carboxamide]: the pEC50 in the data set with HBV [1] was 6.92; in the data set on HBV [3] it was 6.87. This compound returned a CC50 at 4 days in data set [2] above 25 µM.
As to `C[C@H](NC(=O)C(=O)N1CC[C@H](C(=O)Nc2ccc(F)c(C(F)F)c2)C1)C(F)(F)F` [Compound 30, (3S)-N-[3-(difluoromethyl)-4-fluoro-phenyl]-1-[2-oxo-2-[[(1 S)-2,2,2-trifluoro-1-methyl-ethyl]amino]acetyl]pyrrolidine-3-carboxamide], the figures for the pEC50 with HBV [1] and in the data set with HBV [3] were 6.79 and 6.90, respectively. The CC50 at 4 days in data set [2] was above 25 µM.
Turning to `C[C@@H](NC(=O)C(=O)N1CC[C@H](C(=O)Nc2ccc(F)c(Cl)c2F)C1)C(F)(F)F` [Compound 21, (3S)-N-(3-chloro-2,4-difluoro-phenyl)-1-[2-oxo-2-[[(1R)-2,2,2-trifluoro-1-methyl-ethyl]amino]acetyl]pyrrolidine-3-carboxamide], the pEC50 in the data set with HBV [1] and in the data set with HBV [3] was 7.20 throughout. The CC50 at 4 days in data set [2] was above 25 µM.
With `C[C@H]1[C@H](C(=O)Nc2cc(F)c(F)c(F)c2)CCN1C(=O)C(=O)N[C@H](C)C(F)(F)F` [Compound 34a, (2S,3R)-2-methyl-1-[2-oxo-2-[[(1R)-2,2,2-trifluoro-1-methyl-ethyl]amino]acetyl]-N-(3,4,5-trifluorophenyl)pyrrolidine-3-carboxamide], the CC50 at 4 days in data set [2] is above 25 µM. In the data set with HBV [3], this compound showed a negative-log EC50 (pEC50) below 6.30.
On to `C[C@@H](NC(=O)C(=O)N1CCC(C(=O)Nc2cc(F)c(F)c(Cl)c2)C1(C)C)C(F)(F)F` (stereo partly drawn) [Compound 18, N-(3-chloro-4,5-difluoro-phenyl)-2,2-dimethyl-1-[2-oxo-2-[[(1R)-2,2,2-trifluoro-1-methyl-ethyl]amino]acetyl]pyrrolidine-3-carboxamide], for which the CC50 at 4 days in data set [2] was above 25 µM. The compound further had a negative logarithm of the EC50 (pEC50) in the data set on HBV [3] of 6.17.
`O=C(NC1(C(F)(F)F)CC1)C(=O)N1CC[C@H](C(=O)Nc2ccc(F)c(Cl)c2)C1` [Compound 25, (3S)-N-(3-chloro-4-fluoro-phenyl)-1-[2-oxo-2-[[1-(trifluoromethyl)cyclopropyl]amino]acetyl]pyrrolidine-3-carboxamide]: the negative-log EC50 (pEC50) in the data set with HBV [1] was 7.38; with HBV [3] it was 7.51. The compound further returned a CC50 at 4 days in data set [2] above 25 µM.
In data set [2], `C[C@H]1[C@H](C(=O)Nc2cc(F)c(F)c(Cl)c2)CCN1C(=O)C(=O)N[C@H](C)C(F)(F)F` [Compound 33a, (2S,3R)—N-(3-chloro-4,5-difluoro-phenyl)-2-methyl-1-[2-oxo-2-[[(1R)-2,2,2-trifluoro-1-methyl-ethyl]amino]acetyl]pyrrolidine-3-carboxamide] came in with a CC50 at 4 days above 25 µM. In the data set with HBV [3], the negative logarithm of the EC50 (pEC50) is below 6.30.
In data set [2], `C[C@H]1[C@@H](C(=O)Nc2cc(F)c(F)c(Cl)c2)CCN1C(=O)C(=O)N[C@H](C)C(F)(F)F` [Compound 33b, (2S,3S)-N-(3-chloro-4,5-difluoro-phenyl)-2-methyl-1-[2-oxo-2-[[(1R)-2,2,2-trifluoro-1-methyl-ethyl]amino]acetyl]pyrrolidine-3-carboxamide] displayed a 50% cytotoxic concentration (CC50) at 4 days above 25 µM. Also, the negative-log EC50 (pEC50) in the data set with HBV [3] was 8.30.
In the case of `C[C@H]1[C@@H](C(=O)Nc2cc(F)c(F)c(F)c2)CCN1C(=O)C(=O)N[C@H](C)C(F)(F)F` [Compound 34b, (2S,3S)-2-methyl-1-[2-oxo-2-[[(1R)-2,2,2-trifluoro-1-methyl-ethyl]amino]acetyl]-N-(3,4,5-trifluorophenyl)pyrrolidine-3-carboxamide], the CC50 at 4 days in data set [2] is above 25 µM. Further, the pEC50 in the data set on HBV [3] is 8.40.

The pEC50 is the EC50 on a negative log10 scale, so that one unit is a factor of ten. Broadly, the CC50 is the concentration giving 50% cytotoxicity. A low value points to greater toxicity to the cells.
